Source: ChEMBL document CHEMBL5212743, “Selectivity Literature for EUbOPEN Chemogenomics Library wave 3” (2023)
One block for each compound: values may come before it.

How the values were obtained:
[1] = molecular target: T1, Alpha-1A adrenergic receptor (Homo sapiens, UniProt P35348); test: (§1) Selectivity interaction (GPCR panel (PDSP screen)) EUB0000300bCl ADRA1A
T1 sequence (P35348 whole entry): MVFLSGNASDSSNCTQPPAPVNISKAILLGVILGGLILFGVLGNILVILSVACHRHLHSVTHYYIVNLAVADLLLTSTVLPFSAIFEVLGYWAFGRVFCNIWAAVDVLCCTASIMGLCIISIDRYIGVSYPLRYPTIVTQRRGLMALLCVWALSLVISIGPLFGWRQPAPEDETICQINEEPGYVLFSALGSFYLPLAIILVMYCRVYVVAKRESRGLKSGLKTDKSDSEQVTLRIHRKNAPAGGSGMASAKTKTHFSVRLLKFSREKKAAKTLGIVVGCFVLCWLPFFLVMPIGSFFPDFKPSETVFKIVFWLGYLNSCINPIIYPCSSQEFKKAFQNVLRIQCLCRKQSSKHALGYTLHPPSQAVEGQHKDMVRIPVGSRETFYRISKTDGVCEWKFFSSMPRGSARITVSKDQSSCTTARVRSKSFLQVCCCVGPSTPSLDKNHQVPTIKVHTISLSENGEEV

[2] = molecular target: T2, Alpha-2B adrenergic receptor (Homo sapiens) (UniProt P18089); test: Selectivity interaction (GPCR panel (PDSP screen)) EUB0000300bCl ADRA2B; conditions: at 10 µM
T2 sequence (whole entry): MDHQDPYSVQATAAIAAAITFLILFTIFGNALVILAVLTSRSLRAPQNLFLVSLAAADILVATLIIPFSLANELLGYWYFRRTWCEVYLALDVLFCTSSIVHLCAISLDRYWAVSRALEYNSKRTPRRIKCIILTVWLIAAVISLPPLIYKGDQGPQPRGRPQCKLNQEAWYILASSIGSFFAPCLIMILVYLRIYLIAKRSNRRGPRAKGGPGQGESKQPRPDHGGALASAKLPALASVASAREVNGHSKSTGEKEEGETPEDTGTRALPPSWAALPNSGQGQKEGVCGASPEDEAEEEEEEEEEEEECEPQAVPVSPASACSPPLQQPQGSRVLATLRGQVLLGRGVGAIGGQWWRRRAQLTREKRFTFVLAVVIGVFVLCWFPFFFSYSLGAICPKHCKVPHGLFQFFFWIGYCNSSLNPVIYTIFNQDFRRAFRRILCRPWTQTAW

[3] = molecular target: Mitogen-activated protein kinase 6 (Homo sapiens) (UniProt Q16659); test: Selectivity interaction (KinomeScan (DiscoverX)) EUB0000300bCl MAPK6; conditions: at 1 µM
Chain of Mitogen-activated protein kinase 6 (Homo sapiens) (Q16659 whole entry): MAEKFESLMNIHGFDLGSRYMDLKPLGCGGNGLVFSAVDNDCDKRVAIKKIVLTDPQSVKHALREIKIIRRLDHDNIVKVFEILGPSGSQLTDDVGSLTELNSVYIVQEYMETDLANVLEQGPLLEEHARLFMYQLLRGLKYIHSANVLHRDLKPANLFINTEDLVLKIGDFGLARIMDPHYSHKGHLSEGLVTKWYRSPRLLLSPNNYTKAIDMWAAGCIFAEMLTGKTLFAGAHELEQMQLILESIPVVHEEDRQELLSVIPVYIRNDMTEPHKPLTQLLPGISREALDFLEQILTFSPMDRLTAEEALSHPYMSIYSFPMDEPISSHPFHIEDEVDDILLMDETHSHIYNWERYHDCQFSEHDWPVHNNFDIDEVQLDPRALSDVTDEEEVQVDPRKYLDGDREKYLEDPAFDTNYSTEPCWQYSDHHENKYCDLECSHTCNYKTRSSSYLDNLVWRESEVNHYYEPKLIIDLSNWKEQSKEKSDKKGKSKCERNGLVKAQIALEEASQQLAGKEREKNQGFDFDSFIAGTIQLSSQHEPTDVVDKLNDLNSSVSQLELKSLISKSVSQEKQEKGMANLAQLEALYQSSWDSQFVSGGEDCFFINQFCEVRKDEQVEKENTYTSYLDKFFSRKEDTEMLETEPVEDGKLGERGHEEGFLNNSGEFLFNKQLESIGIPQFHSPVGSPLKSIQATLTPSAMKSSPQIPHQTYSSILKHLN

[4] = molecular target: Tyrosine-protein kinase receptor TYRO3 (Homo sapiens) (UniProt Q06418); test: Selectivity interaction (KinomeScan (DiscoverX)) EUB0000300bCl TYRO3; conditions: at 1 µM
Chain of Tyrosine-protein kinase receptor TYRO3 (Homo sapiens) (Q06418 whole entry): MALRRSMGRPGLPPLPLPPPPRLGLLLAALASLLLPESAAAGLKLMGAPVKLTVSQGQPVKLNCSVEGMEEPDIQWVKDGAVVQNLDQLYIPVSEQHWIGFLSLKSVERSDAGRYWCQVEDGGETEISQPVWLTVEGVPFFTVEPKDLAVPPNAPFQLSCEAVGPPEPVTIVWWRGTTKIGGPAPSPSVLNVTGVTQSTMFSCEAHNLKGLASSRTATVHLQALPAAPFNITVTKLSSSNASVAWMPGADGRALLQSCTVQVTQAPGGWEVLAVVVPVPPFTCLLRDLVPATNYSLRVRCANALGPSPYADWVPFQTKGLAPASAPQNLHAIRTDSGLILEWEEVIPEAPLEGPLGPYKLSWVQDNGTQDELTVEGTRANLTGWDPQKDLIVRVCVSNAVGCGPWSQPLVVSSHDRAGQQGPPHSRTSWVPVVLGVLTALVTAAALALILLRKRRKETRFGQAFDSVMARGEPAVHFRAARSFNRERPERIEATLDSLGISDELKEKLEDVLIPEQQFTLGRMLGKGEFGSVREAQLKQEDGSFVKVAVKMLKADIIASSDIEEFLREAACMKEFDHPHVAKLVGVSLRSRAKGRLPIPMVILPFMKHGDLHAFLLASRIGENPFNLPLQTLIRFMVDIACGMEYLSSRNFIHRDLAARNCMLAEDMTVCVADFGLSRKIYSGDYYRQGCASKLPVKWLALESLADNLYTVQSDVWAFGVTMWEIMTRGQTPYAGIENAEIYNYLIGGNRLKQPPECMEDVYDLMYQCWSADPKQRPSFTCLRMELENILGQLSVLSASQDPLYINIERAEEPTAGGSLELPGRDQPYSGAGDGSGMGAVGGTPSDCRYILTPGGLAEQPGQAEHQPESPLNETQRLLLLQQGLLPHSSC

[5] = molecular target: T3, Alpha-1A adrenergic receptor (Homo sapiens) (UniProt P35348); test: as §1; conditions: at 10 µM
T3 sequence (whole entry): T1 sequence (P35348 whole entry)

[6] = molecular target: T4, Alpha-1B adrenergic receptor (Homo sapiens, UniProt P35368); test: Selectivity interaction (GPCR panel (PDSP screen)) EUB0000300bCl ADRA1B
T4 sequence (P35368 whole entry): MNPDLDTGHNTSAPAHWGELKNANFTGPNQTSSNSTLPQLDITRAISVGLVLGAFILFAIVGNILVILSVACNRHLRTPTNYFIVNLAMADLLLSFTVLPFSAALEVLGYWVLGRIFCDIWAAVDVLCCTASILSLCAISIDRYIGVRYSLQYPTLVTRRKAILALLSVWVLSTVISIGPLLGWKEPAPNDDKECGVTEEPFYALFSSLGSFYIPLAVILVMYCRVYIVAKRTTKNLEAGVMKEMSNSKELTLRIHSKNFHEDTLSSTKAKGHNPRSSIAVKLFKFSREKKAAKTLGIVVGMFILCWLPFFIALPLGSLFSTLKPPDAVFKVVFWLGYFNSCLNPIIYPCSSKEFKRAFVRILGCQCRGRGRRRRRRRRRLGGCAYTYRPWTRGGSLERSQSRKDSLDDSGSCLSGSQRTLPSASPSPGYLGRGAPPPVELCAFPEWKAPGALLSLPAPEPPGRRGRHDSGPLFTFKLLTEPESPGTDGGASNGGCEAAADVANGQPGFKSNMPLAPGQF

[7] = molecular target: Serine/threonine-protein kinase 38-like (Homo sapiens, UniProt Q9Y2H1); test: Selectivity interaction (KinomeScan (DiscoverX)) EUB0000711a STK38L; conditions: at 100 nM
Chain of Serine/threonine-protein kinase 38-like (Q9Y2H1 2-464 limits assumed): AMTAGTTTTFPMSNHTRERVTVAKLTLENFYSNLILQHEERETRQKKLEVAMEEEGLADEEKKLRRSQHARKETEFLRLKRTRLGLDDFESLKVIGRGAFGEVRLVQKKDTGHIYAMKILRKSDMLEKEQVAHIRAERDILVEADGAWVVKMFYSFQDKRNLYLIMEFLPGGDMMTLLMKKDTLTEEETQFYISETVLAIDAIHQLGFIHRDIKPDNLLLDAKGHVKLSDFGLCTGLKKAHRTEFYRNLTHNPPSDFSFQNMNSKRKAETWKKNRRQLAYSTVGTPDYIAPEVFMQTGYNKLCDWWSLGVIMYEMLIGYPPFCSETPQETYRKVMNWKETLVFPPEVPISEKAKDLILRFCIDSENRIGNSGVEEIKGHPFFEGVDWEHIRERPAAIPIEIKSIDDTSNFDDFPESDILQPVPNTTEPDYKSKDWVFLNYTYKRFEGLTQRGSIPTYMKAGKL

[8] = molecular target: Leucine-rich repeat serine/threonine-protein kinase 2 (Homo sapiens, UniProt Q5S007); test: Selectivity interaction (KinomeScan (DiscoverX)) EUB0000711a LRRK2; conditions: at 100 nM
[9] = molecular target: Serine/threonine-protein kinase Nek1 (Homo sapiens) (UniProt Q96PY6); test: Selectivity interaction (KinomeScan (DiscoverX)) EUB0000711a NEK1; conditions: at 100 nM
Chain of Serine/threonine-protein kinase Nek1 (Homo sapiens) (Q96PY6 whole entry): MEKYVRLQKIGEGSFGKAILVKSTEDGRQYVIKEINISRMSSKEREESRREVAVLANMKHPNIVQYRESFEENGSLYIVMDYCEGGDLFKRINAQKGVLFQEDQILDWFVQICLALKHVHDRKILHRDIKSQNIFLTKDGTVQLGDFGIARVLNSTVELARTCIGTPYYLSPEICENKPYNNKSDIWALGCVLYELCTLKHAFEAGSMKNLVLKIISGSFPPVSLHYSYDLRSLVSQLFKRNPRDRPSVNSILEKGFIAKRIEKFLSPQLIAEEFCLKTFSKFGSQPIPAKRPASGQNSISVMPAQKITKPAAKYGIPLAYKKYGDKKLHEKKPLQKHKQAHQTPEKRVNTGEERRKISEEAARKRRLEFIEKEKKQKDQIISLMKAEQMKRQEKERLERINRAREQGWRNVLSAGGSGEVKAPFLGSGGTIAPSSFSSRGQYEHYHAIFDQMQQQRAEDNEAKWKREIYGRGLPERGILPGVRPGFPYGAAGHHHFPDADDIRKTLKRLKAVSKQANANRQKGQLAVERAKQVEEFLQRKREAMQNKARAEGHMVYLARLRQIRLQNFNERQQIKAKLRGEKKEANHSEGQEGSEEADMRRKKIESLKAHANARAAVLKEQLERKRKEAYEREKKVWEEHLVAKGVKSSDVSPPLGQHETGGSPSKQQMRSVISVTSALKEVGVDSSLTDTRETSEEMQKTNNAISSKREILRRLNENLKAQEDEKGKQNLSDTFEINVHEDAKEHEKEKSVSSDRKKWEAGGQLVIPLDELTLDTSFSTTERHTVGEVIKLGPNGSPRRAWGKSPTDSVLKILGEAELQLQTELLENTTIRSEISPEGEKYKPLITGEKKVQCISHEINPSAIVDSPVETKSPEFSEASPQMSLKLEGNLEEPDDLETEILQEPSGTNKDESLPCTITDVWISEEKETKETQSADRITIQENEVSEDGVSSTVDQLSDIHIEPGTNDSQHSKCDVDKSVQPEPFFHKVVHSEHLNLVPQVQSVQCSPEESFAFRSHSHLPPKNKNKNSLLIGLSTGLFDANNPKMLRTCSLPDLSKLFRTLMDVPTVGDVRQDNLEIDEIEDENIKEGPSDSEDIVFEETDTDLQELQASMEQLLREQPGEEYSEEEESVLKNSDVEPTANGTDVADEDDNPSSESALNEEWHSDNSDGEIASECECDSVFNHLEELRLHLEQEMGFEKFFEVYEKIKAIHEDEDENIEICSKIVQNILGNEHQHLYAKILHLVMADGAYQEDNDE

[10] = molecular target: T5, Serine/threonine-protein kinase ULK2 (Homo sapiens) (UniProt Q8IYT8); test: Selectivity interaction (Kinase panel (International centre for protein kinase profiling)) EUB0000627a ULK2; conditions: at 1 µM
T5 sequence (whole entry): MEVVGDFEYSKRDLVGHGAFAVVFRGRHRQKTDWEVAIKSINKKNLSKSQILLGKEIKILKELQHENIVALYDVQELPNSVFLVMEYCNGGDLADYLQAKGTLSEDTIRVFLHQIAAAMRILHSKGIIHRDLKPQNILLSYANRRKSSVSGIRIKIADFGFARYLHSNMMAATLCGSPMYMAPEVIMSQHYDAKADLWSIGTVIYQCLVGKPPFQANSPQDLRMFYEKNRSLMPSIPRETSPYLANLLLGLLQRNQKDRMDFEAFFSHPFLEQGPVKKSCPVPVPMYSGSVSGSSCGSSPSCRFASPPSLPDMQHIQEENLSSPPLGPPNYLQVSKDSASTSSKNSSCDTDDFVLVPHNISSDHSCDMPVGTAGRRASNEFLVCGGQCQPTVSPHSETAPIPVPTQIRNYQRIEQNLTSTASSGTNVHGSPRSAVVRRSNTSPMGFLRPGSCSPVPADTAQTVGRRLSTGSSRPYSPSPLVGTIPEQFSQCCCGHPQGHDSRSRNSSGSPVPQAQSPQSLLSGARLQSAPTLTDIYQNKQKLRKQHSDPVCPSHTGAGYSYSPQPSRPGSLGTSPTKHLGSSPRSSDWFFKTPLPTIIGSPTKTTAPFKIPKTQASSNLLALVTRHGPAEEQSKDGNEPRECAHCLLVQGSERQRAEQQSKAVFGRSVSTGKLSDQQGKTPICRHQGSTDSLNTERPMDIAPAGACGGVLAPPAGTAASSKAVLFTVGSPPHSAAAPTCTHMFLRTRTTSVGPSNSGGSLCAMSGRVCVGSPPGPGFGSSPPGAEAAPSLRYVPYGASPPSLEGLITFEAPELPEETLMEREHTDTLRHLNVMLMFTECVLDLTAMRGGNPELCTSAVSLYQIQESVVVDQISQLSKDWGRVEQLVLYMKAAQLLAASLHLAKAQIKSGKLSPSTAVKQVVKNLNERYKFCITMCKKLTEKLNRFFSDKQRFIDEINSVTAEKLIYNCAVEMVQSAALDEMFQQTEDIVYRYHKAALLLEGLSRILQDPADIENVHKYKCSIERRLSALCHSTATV

[11] = molecular target: Serine/threonine-protein kinase 33 (Homo sapiens, UniProt Q9BYT3); test: Selectivity interaction (Kinase panel (International centre for protein kinase profiling)) EUB0000627a STK33; conditions: at 1 µM
Chain of Serine/threonine-protein kinase 33 (Q9BYT3 whole entry, looked up): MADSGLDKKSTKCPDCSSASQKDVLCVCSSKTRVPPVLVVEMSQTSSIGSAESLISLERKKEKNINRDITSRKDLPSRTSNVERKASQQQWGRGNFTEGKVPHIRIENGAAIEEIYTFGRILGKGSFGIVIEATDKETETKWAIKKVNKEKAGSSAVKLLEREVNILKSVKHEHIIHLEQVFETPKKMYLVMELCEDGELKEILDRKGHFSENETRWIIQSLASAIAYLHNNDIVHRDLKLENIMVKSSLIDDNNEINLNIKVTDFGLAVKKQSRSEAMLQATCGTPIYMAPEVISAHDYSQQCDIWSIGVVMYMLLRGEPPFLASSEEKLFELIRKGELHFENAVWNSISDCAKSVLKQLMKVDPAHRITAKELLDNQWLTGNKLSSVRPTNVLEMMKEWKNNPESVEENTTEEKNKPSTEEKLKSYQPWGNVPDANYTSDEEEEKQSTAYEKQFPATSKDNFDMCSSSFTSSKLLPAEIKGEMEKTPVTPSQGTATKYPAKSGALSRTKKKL

[12] = molecular target: T6, Gamma-aminobutyric acid receptor subunit alpha-1 (Homo sapiens) (UniProt P14867); test: Selectivity interaction (GPCR panel (PDSP screen)) EUB0000329a GABRA1; conditions: at 10 µM
T6 sequence (whole entry): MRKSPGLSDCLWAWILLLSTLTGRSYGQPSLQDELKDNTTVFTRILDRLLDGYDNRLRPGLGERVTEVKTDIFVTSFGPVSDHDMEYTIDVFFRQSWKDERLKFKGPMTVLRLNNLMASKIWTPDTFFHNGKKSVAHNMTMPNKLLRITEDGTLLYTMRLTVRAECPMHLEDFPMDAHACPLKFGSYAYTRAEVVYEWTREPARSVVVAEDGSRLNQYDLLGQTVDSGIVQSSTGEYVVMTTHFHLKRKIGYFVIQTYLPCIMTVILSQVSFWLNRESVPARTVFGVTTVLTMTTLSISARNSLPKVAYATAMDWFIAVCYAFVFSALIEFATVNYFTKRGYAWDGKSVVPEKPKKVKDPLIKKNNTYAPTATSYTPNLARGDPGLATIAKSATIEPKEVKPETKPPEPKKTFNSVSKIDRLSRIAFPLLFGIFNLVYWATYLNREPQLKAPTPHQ

[13] = molecular target: Adenosine receptor A2a (Homo sapiens) (UniProt P29274); test: Selectivity interaction (Enzyme panel (kinases, GPCRs, HDACs, phosphatases)) EUB0000329a ADORA2A; conditions: at 10 µM
Chain of Adenosine receptor A2a (Homo sapiens) (P29274 whole entry): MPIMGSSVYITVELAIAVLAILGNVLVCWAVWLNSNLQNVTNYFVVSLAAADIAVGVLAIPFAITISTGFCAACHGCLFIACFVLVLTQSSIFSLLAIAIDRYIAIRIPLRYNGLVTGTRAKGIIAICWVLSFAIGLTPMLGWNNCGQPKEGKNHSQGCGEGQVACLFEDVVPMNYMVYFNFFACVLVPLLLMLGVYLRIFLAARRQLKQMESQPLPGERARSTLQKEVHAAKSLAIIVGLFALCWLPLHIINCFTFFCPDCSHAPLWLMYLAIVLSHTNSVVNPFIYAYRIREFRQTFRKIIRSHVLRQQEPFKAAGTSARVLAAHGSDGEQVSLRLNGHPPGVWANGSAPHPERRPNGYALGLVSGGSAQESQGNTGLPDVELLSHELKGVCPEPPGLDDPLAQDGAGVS

- Ki [1]: > 2.7 µM
- % of inhibition [2]: 80%
- % of control [3]: 0%
- % of control [4]: 33%
- % of inhibition [5]: 84%
- Ki [6]: > 1.2 µM
Compound: C[C@@H](c1cccc(CN)c1)n1cc(Cl)cc(C(N)=O)c1=N

- % of control [7]: 20%
- % of control [8]: 57%
- % of control [9]: 58%
Compound: O=C(NCCCC1CCCCC1)c1ccc(CNC(=O)c2cnn(-c3ccccc3)c2C(F)(F)F)cc1

- % of kinase activity [10]: 37%
- % of kinase activity [11]: 33%
Compound: CCC(=O)Nc1cccc(Oc2nc(Nc3ccc(N4CCN(C)CC4)cc3OC)ncc2Cl)c1

- % of inhibition [12]: 75.7%
- % of inhibition [13]: 49%
Compound: O=C(NNS(=O)(=O)c1ccccc1F)c1cc(F)cc(-c2ccccn2)c1
